Assay results published in a melting point compilation (Tetko et al.; mined from patent text by program, amines drawn as free bases though some values may be those of a salt).

Molecule CC=C1CC2C3CCc4cc(OC)ccc4C3CCC2(CC)C1=O (centres undefined) has a melting point of 155 to 157 °C. Work on O=C(NCCc1cccc(-c2nc(=O)c3ccccc3s2)n1)Nc1ccccc1 yielded a melting point of 235 to 236 °C. CC(C)=NNC(=O)c1ccc(-c2ccc(Cl)cc2)o1 showed a melting point of 167 to 169 °C. Work on CC(C)(C)c1cc(C(C)(C)C)n(Cc2ccc(CNc3ccc(CCC(=O)O)c(F)c3)cc2)n1 yielded a melting point of 146 to 147 °C. In the case of CC(C)n1c(C=O)c(-c2ccc(F)cc2)c2cccnc21, the melting point is reported as 95 to 101 °C. Cn1nc(-c2ccccc2)c(S(=O)(=O)c2ccccc2)c1-c1ccccc1 showed a melting point of 135 to 141 °C. For CCOc1ccc(C(C)=O)cc1C(=O)Nc1c(C)cccc1C(N)=O, the melting point was 214 to 216 °C. In the case of Fc1ccc(-c2nc[nH]c2-c2cccs2)cc1, the melting point is reported as 197 to 198 °C. For CC(C)Cn1c(CNC(=O)OC(C)(C)C)c(-c2ccccc2)c2cc(CO)ccc2c1=O, the melting point was 169 to 170 °C. With CCOC(=O)C(Cc1ccccc1)NC(=O)COc1ccc(C2=NNC(=O)NC2)cc1 (centres undefined) the melting point was 148 to 150 °C. Molecule C=CCN1CCCN(c2cc(Cl)ccc2C)C1=S has a melting point of 71 to 72 °C. Cc1nnc2cccc(-c3ccccn3)n12 gave a melting point of 168 to 170 °C. Work on O=C1CCC(c2ccccc2F)(c2ccccc2F)[C@@H]2CN(Cc3ccccc3)C[C@H]12 (racemic) yielded a melting point of 138 °C. For C#Cc1ccc2c(c1-c1cn(C3CC(O)C(COC(c4ccccc4)(c4ccc(OC)cc4)c4ccc(OC)cc4)O3)c(=O)[nH]c1=O)Cc1ccccc1-2 (centres undefined), the melting point was 160 to 161 °C. CC(C)N(C)c1nc(Nc2cccc(NS(C)(=O)=O)c2)nc2[nH]cnc12 showed a melting point of 144 to 147 °C. Molecule Oc1nc(-c2cccnc2)sc1-c1ccccc1 has a melting point of 273 to 276 °C. Molecule FC(F)(F)c1cc(N(Cc2ccsc2)Cc2ccccn2)cc(C(F)(F)F)c1Br has a melting point of 58 to 59 °C. COC(=O)C1=C(C)NC(C)=C(C(=O)OCOC(=O)C(C)C)C1c1cccc(Cl)c1Cl (centres undefined) gave a melting point of 145 °C. Oc1cccc2c1CC(n1cc[nH]c1=S)CC2 (centres undefined) showed a melting point of 274 to 276 °C. In the case of Cc1ccc(C(=O)c2cc(-c3ccncc3)c(N3CCOCC3)s2)cc1, the melting point is reported as 144 to 145 °C. With Cc1ccc(-c2[nH]c(C3CCCCC3)nc2C(=O)O)cc1 the melting point was 205 to 206 °C. In the case of CC(C)(C)c1nn(-c2c(Cl)cc(C(F)(F)F)cc2Cl)c(Cl)c1-c1nc(C#N)c(C#N)[nH]1, the melting point is reported as 118 to 120 °C. Molecule Cc1ccc(S(=O)(=O)N2CCSC2=C(c2cccc(C)c2C)C(N)c2cccc(C)c2)cc1 (centres undefined) has a melting point of 141 to 144 °C. For CC(C)(C)OC1CCC2(C)C(=CC(=O)C3C4CCC(=O)C4(C)CCC32)C1 (centres undefined), the melting point was 189 to 191 °C. [N-]=[N+]=NCC(COC(C(F)(F)F)(C(F)(F)F)C(F)(F)F)(COC(C(F)(F)F)(C(F)(F)F)C(F)(F)F)C(=O)O gave a melting point of 97 to 98 °C. Molecule CC(C)(C)c1ccc(N2C[C@H](Cn3ccnn3)OC2=O)cc1 has a melting point of 140 to 142 °C. Molecule CNC(=O)N1CCC(c2nn(-c3ccc(C(F)(F)F)cc3)c3ccccc23)CC1 has a melting point of 150 to 152 °C. CCCn1ncnc1COc1nn2c(-c3ccccc3F)nncc2c1C(C)(C)C gave a melting point of 93 °C. In the case of Cc1ccc(S(=O)(=O)Nc2ccc3[nH]c(=O)c4ccccc4c3c2)cc1, the melting point is reported as 199 to 203 °C. COc1cc(OCc2cccnc2)ccc1/C=C/c1cc(/C=C/c2cc3ccccc3[nH]2)n[nH]1 gave a melting point of 126 to 138 °C. For CC(=O)NCCCC(=O)c1ccc(Cl)cc1C(CC(=O)O)c1ccccc1 (centres undefined), the melting point was 114 to 116 °C. For CC(=O)NCc1ccc2c(c1)N(C1CCNCC1)CC2, the melting point was 165 to 167 °C. With CCn1cc(C2(c3cccc(-c4cncc(Cl)c4)c3)N=C(N)N(C)C2=O)cn1 (centres undefined) the melting point was 205 to 210 °C. With N#Cc1cc(Cl)cc(Oc2ccc(CC(=O)Nc3ccc(S(N)(=O)=O)cc3Cl)cc2Br)c1 the melting point was 205 to 207 °C. With COc1ccc(N(CCCC(=O)O)C(=O)CCN(C(C)=O)c2c(C)cccc2C)cc1 the melting point was 90 to 92 °C. O=C1N(CO)CCN1C(c1ccccc1)c1ccccc1 gave a melting point of 134 °C. Molecule C=C(c1cn(-c2c(Cl)cc(C(F)(F)F)cc2Cl)nc1C#N)C(F)(F)Cl has a melting point of 113 to 114 °C. Molecule N#CC1CN1C(=O)c1ccc(S(N)(=O)=O)cc1 (centres undefined) has a melting point of 145 to 146 °C. N#Cc1ccc(N2CCCN(c3ccnc4sc(C(N)=O)c(N)c34)CC2)cc1 gave a melting point of 151 to 153 °C. Cc1cc(Br)c(Cl)cc1Cl gave a melting point of 82.5 to 84 °C. In the case of CC(C)(C)[N+]([O-])=Cc1c(O)cc(O)cc1O, the melting point is reported as 190 °C. CC1(C)OCCN1CCNc1ccc(NCCN2CCOC2(C)C)c2c1C(=O)c1c(O)ccc(O)c1C2=O gave a melting point of 255 to 256 °C. For O=C(O)CCC(Cc1ccccc1Br)(C(=O)C=Cc1ccc(Cl)cc1)c1ccccc1 (centres undefined), the melting point was 210 to 214 °C. Work on CC(=O)N1c2ccc(-c3ccc(C=O)cc3)cc2C(NC=O)CC1C (centres undefined) yielded a melting point of 85.6 °C. For NC(c1ccccc1)c1ccc(OCCCOc2ccc(C(N)c3ccccc3)cc2)cc1 (centres undefined), the melting point was 118 to 119 °C. CCC(=O)c1cc2c(Oc3ccc(Cl)cc3)cncc2s1 showed a melting point of 101 to 102 °C. With CCOC(=O)C(C(=O)CBr)C1Cc2ccccc2C(c2ccccc2)N1 (centres undefined) the melting point was 107 to 109 °C. Molecule CC1(C)CC(c2ccccc2)Nc2c(C(=O)O)cnn21 (single isomer, unassigned; (-)) has a melting point of 205 to 206 °C. In the case of O=Cc1ccc(Cl)cc1C1(c2ccccc2F)OCCO1, the melting point is reported as 103 to 105 °C. For C/C(=C\c1ccc(C(F)(F)F)cc1)C(=O)O, the melting point was 170 °C. N#CCc1cc(Br)ccc1Sc1ccccc1 gave a melting point of 118 to 120 °C. Molecule Cc1cc(-c2cnn3c(C(F)(F)F)cc(-c4cccc(C(F)(F)F)c4)nc23)ccn1 has a melting point of 232 °C. Cc1c(NC(=O)c2ccc(OC[C@@H]3CCCO3)cc2)ccc2cc(CNCC3CCOCC3)cnc12 showed a melting point of 92 to 94 °C. Molecule O=S=Nc1ccc(C(=O)Cl)cc1 has a melting point of 31 °C. For COc1ccc(Cc2nc(-c3ccc(F)cc3)c(-c3ccc(S(C)(=O)=O)cc3)o2)cc1, the melting point was 123 to 124 °C. In the case of CCOc1ccc(S(=O)(=O)n2nc(O)cc2N)cc1-c1nc2cccnc2c(=O)[nH]1, the melting point is reported as 246 to 249 °C. Work on O=C(NCC1CCCC1)NC1CCN(CC23CC(c4ccccc42)c2ccccc23)CC1 yielded a melting point of 197 to 198 °C. Work on O=C1CC(Sc2ccccc2)C(O)(c2ccccc2)C(Sc2ccccc2)C1 (centres undefined) yielded a melting point of 126 to 127 °C. Work on CN1CCN(Cc2ccc(-c3nc4cc([N+](=O)[O-])ccc4o3)s2)CC1 yielded a melting point of 135 to 137 °C. Cc1ccc(OCC(O)CNC(C)(C)C)c([N+](=O)[O-])c1[N+](=O)[O-] (centres undefined) gave a melting point of 104 to 106 °C. COc1ccc(C(=O)Nc2cccnc2)cc1N gave a melting point of 193 to 196 °C. In the case of CC(C)(C)C(=O)Nc1ccccc1-c1cc2ccccc2[nH]1, the melting point is reported as 132 to 136 °C. CCCCCS(=O)(=O)NC(=O)CCc1cc(OCc2ccccc2)nn1Cc1ccc(Cl)cc1Cl gave a melting point of 139 to 141 °C. Work on CSc1nc(NCc2ccc(-c3ccccc3)cc2)n2ncc(C(C)C)c2n1 yielded a melting point of 134 to 135 °C. Cc1cc(C(=O)C(C#N)C(=O)Nc2ccccc2)c(C)n1C (centres undefined) gave a melting point of 158 to 160 °C. For CCCCCCCCCCCCCCCC(=O)OC1CN(C)C2(C1)C1CC3CC(C1)CC2C3 (centres undefined), the melting point was 50 to 53 °C. CC(CO)NC(=O)C(F)(F)F (centres undefined) showed a melting point of 80 to 81 °C. CCCCN1CSC(=S)N(Cc2ccncc2)C1 showed a melting point of 75 to 80 °C. NS(=O)(=O)c1ccc(S(=O)(=O)CCCO)c(C(=O)O)c1 showed a melting point of 170 °C. OCc1nnc2ccc(-c3cccc(C(F)(F)F)c3)nn12 gave a melting point of 224 to 226 °C. With COC(=O)Nc1nc2cc(F)c(OC(C)c3c(Cl)cccc3Cl)cc2[nH]1 (centres undefined) the melting point was 240 to 245 °C. Molecule COc1cc(OC)c(-c2cccnc2)cc1/C=C/C(=O)c1ccc(S(N)(=O)=O)cc1 has a melting point of 253 to 255 °C. O=C(OCC1CCCCO1)c1ccccc1Nc1ccnc2cc(Cl)ccc12 (centres undefined) showed a melting point of 93 to 94 °C. COCCNc1cncc(C(N)=O)c1 gave a melting point of 79 to 80 °C. With CS(=O)c1ccc(-n2cnc3ccc(-c4nnc(CC(F)(F)F)o4)cc32)cc1 (centres undefined) the melting point was 184 to 185 °C. In the case of N#Cc1c(OCC(F)(F)F)nc(CCO)nc1N1CCc2ccccc2CC1, the melting point is reported as 114 to 116 °C. With O=C1CCC(N2Cc3c(CNC(=O)c4cccc(Cl)c4)cccc3C2=O)C(=O)N1 (centres undefined) the melting point was 266 to 268 °C. NC1NC=CN1c1ccncc1 (centres undefined) showed a melting point of 190 °C. In the case of CCCn1nc2c(N)nc3ccccc3c2c1CCN(C(N)=O)c1ccc(F)cc1, the melting point is reported as 201 to 202 °C. With O=[N+]([O-])c1ccc(C(Cl)=NNc2ccccc2)c(Cl)c1 the melting point was 124 to 126 °C. For CN1CC=C(c2c[nH]c3ccc(CCNS(C)(=O)=O)cc23)CC1, the melting point was 170 to 172 °C. Work on COc1ccc(S(=O)(=O)Nc2onc(C)c2Br)cc1OC yielded a melting point of 136 to 138 °C. For CSC(C#N)c1cccc(C(=O)c2ccccc2)c1N (centres undefined), the melting point was 107 to 108 °C. O=C(Nc1ccc(-n2nc(C(F)(F)F)cc2C(F)(F)F)cc1)c1cccc(Cl)c1 showed a melting point of 142 to 144 °C. With CC(=O)NCC1CC1c1ccc(F)c2nn(C)cc12 (centres undefined) the melting point was 147 to 148 °C. For CNC(=O)N(C)C(=O)N1CCN(c2ccccc2)CC1, the melting point was 79 to 80 °C. With CC(=O)NC[C@H]1CN(c2ccc(N3CCC(Cc4nnc(-c5ccccc5)o4)CC3)c(F)c2)C(=O)O1 the melting point was 199 to 200 °C. With CCCCCCCCCCCCOC(=O)CC(O)C(=O)OCCCCCCCCCCCC (centres undefined) the melting point was 27 to 30 °C. With COc1ccc(N2C(=O)N(c3ccccc3)c3nc(Nc4ccccc4)ncc3C2C)cc1 (centres undefined) the melting point was 222 to 234 °C. CC(=O)N1[C@@H](c2ccc(Cl)cc2)SC(C)(C)[C@@H]1C(=O)O gave a melting point of 197 to 198 °C. O=CNc1ccccc1Nc1ccc(C(=O)c2ccccc2)cc1 gave a melting point of 122 to 124 °C. Molecule Nc1ccc(-c2ncon2)cc1 has a melting point of 97 to 100 °C. In the case of Cc1oc2c(OC(C)C#N)cccc2c1C (centres undefined), the melting point is reported as 53 to 55 °C. In the case of O=C1NC(=O)c2c1c(-c1ccccc1Cl)cc1c2cc(CO)n1CCCBr, the melting point is reported as 218 to 220 °C. With COc1cc(C(C)(C)CNC(=O)c2cccc(Br)c2)cc2c1OC(C)(C)C2 the melting point was 157 to 163 °C. CCCc1cc2cc(O)c(Cl)c(Cl)c2s1 showed a melting point of 50 to 51 °C. In the case of CC(C)CNc1cc2nnnn2c2cnccc12, the melting point is reported as 220 to 221 °C. In the case of C[Si](C)(C)Oc1nc(-c2ccccc2)nc2c1CC(S(=O)(=O)c1ccccc1)CC2 (centres undefined), the melting point is reported as > 250 °C. Molecule COc1cccc(Cc2cnc(N)nc2N)c1 has a melting point of 221 to 223 °C.
